Assay results reported in PubChem BioAssay AID248 (DTP/NCI, 2004).
Where “and” joins values, the source holds several entries; their conditions need not be identical. Identical values can stand only once. Toxic doses and inconclusive results are not listed. Rule as the data show it: active = T/C of 150% or more; inactive = T/C below 125%.

System: L1210 leukemia ip in BDF1 mice, survival T/C
Assay: NCI In Vivo Anticancer Drug Screen. Data for tumor model L1210 Leukemia (intraperitoneal) in B6D2F1 (BDF1) mice
Conditions: endpoint: mean survival time, higher = longer survival
In short: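 Mice bearing the transplanted tumor received compound or vehicle. Survival of the treated group was divided by that of the vehicle-treated control group to give the ratio.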

[1] = dose: 100.0 mg/kg/injection, schedule: Q01DX001 (ip), vehicle: carboxymethylcellulose (CMC)
[2] = dose: 200.0 mg/kg/injection, schedule: Q01DX001 (ip), vehicle: carboxymethylcellulose (CMC)
[3] = dose: 100.0 mg/kg/injection, schedule: Q04DX002 (ip), vehicle: Klucel (hydroxypropylcellulose) (HPC)
[4] = dose: 200.0 mg/kg/injection, schedule: Q04DX002 (ip), vehicle: Klucel (hydroxypropylcellulose) (HPC)
[5] = dose: 400.0 mg/kg/injection, schedule: Q04DX002 (ip), vehicle: Klucel (hydroxypropylcellulose) (HPC)
[6] = dose: 75.0 mg/kg/injection, schedule: Q01DX001 (ip), vehicle: saline
[7] = dose: 100.0 mg/kg/injection, schedule: Q04DX002 (ip), vehicle: saline with Tween-80
[8] = dose: 200.0 mg/kg/injection, schedule: Q04DX002 (ip), vehicle: saline with Tween-80
[9] = dose: 400.0 mg/kg/injection, schedule: Q04DX002 (ip), vehicle: saline with Tween-80
[10] = dose: 100.0 mg/kg/injection, schedule: Q01DX009 (ip), vehicle: Klucel (hydroxypropylcellulose) (HPC)
[11] = dose: 200.0 mg/kg/injection, schedule: Q01DX009 (ip), vehicle: Klucel (hydroxypropylcellulose) (HPC)
[12] = dose: 400.0 mg/kg/injection, schedule: Q01DX009 (ip), vehicle: Klucel (hydroxypropylcellulose) (HPC)
[13] = dose: 100.0 mg/kg/injection, schedule: Q04DX003 (ip), vehicle: Klucel (hydroxypropylcellulose) (HPC)
[14] = dose: 200.0 mg/kg/injection, schedule: Q04DX003 (ip), vehicle: Klucel (hydroxypropylcellulose) (HPC)
[15] = dose: 400.0 mg/kg/injection, schedule: Q04DX003 (ip), vehicle: Klucel (hydroxypropylcellulose) (HPC)
[16] = dose: 12.0 mg/kg/injection, schedule: Q01DX009 (ip), vehicle: Klucel (hydroxypropylcellulose) (HPC)
[17] = dose: 100.0 mg/kg/injection, schedule: Q01DX001 (ip), vehicle: other
[18] = dose: 50.0 mg/kg/injection, schedule: Q01DX001 (ip), vehicle: carboxymethylcellulose (CMC)

Measured: T/C

NC(=S)N/N=C/c1ccc(Br)s1
inactive: [1] 87 % of control | [2] 100 % of control

COc1ccc(-n2c(=O)c(N=Nc3ccc(Cl)cc3)c(O)n(-c3ccc(I)cc3)c2=S)cc1
inactive: dose: 37.5 mg/kg/injection, schedule: Q01DX001 (ip), vehicle: Klucel (hydroxypropylcellulose) (HPC) 97 % of control | dose: 75.0 mg/kg/injection, schedule: Q01DX001 (ip), vehicle: Klucel (hydroxypropylcellulose) (HPC) 90 % of control | dose: 150.0 mg/kg/injection, schedule: Q01DX001 (ip), vehicle: Klucel (hydroxypropylcellulose) (HPC) 97 % of control

O=C(O)COc1ccc2ccccc2c1Cl
inactive: [3] 86 % of control | [4] 89 % of control | [5] 92 % of control

CCSP(N)(=O)c1ccccc1 (configuration not stated)
inactive: [6] 101 % of control

c1ccc(CCc2ccccc2)cc1
inactive: dose: 100.0 mg/kg/injection, schedule: Q01DX009 (ip), vehicle: saline with Tween-80 91 % of control | [7] 95 % of control | dose: 200.0 mg/kg/injection, schedule: Q01DX009 (ip), vehicle: saline with Tween-80 91 % of control | [8] 98 % of control | dose: 400.0 mg/kg/injection, schedule: Q01DX009 (ip), vehicle: saline with Tween-80 94 % of control | [9] 98 % of control

C[N+](C)(C)CCS(=O)(=O)Cc1ccccc1
inactive: dose: 75.0 mg/kg/injection, schedule: Q01DX001 (ip), vehicle: carboxymethylcellulose (CMC) 110 % of control | dose: 150.0 mg/kg/injection, schedule: Q01DX001 (ip), vehicle: carboxymethylcellulose (CMC) 108 % of control | dose: 300.0 mg/kg/injection, schedule: Q01DX001 (ip), vehicle: carboxymethylcellulose (CMC) 96 % of control

NC(=O)CNC(c1ccccc1)C(O)c1ccccc1 (configuration not stated)
inactive: [10] 96 % of control | [3] 91 % of control | [11] 98 % of control | [4] 102 % of control | [12] 93 % of control | [5] 102 % of control

CC(=O)NC(C)CC(C)C (configuration not stated)
inactive: dose: 100.0 mg/kg/injection, schedule: Q04DX003 (ip), vehicle: saline 113 % of control | dose: 200.0 mg/kg/injection, schedule: Q04DX003 (ip), vehicle: saline 103 % of control

COc1ccc(CCN2CSC(=S)N(CCc3ccc(OC)c(OC)c3)C2)cc1OC
inactive: [10] 97 % of control | [13] 97 % of control | [11] 100 % of control | [14] 97 % of control | [12] 94 % of control | [15] 95 % of control

C=CCOc1cccc(OCC=C)c1C
inactive: dose: 100.0 mg/kg/injection, schedule: Q04DX003 (ip), vehicle: saline with Tween-80 100 % of control | dose: 200.0 mg/kg/injection, schedule: Q04DX003 (ip), vehicle: saline with Tween-80 98 % of control | dose: 400.0 mg/kg/injection, schedule: Q04DX003 (ip), vehicle: saline with Tween-80 98 % of control

O=[N+]([O-])c1ccc(S(=O)[O-])cc1.O=[N+]([O-])c1ccc(S(=O)[O-])cc1.[Zn+2]
inactive: [6] 102 % of control | dose: 150.0 mg/kg/injection, schedule: Q01DX001 (ip), vehicle: saline 110 % of control

Cc1ccc(NCC(O)CN2CCOCC2)cc1 (configuration not stated)
inactive: dose: 3.0 mg/kg/injection, schedule: Q04DX003 (ip), vehicle: Klucel (hydroxypropylcellulose) (HPC) 107 % of control | dose: 6.0 mg/kg/injection, schedule: Q01DX009 (ip), vehicle: Klucel (hydroxypropylcellulose) (HPC) 101 % of control | dose: 6.0 mg/kg/injection, schedule: Q04DX003 (ip), vehicle: Klucel (hydroxypropylcellulose) (HPC) 100 % of control | [16] 93 % of control | dose: 12.0 mg/kg/injection, schedule: Q04DX003 (ip), vehicle: Klucel (hydroxypropylcellulose) (HPC) 103 % of control | dose: 24.0 mg/kg/injection, schedule: Q01DX009 (ip), vehicle: Klucel (hydroxypropylcellulose) (HPC) 106 % of control | [17] 101 % of control

O=C(Nc1ccccc1F)C(F)(F)F
inactive: [13] 103 % of control | [14] 105 % of control | [15] 97 % of control

COc1cc2c(c(OC)c1OC)-c1ccc(OC)c(=O)cc1C(=O)CC2
inactive: [18] 122 % of control

CC1(C)N=C(N)N=C(N)N1c1ccccc1F
inactive: dose: 25.0 mg/kg/injection, schedule: Q01DX009 (ip), vehicle: saline 93 % of control | dose: 38.0 mg/kg/injection, schedule: Q01DX001 (ip), vehicle: saline 101 % of control | dose: 50.0 mg/kg/injection, schedule: Q01DX009 (ip), vehicle: saline 91 % of control | [6] 101 % of control | dose: 75.0 mg/kg/injection, schedule: Q01DX009 (ip), vehicle: saline 110 % of control

CC/C(=N/NC(N)=O)c1ccccc1Cl
inactive: dose: 100.0 mg/kg/injection, schedule: Q01DX001 (ip), vehicle: saline 97 % of control | dose: 200.0 mg/kg/injection, schedule: Q01DX001 (ip), vehicle: saline 96 % of control | dose: 400.0 mg/kg/injection, schedule: Q01DX001 (ip), vehicle: saline 106 % of control

CCOC(=O)c1c[nH]c(C)c1C
inactive: [13] 104 % of control | [14] 109 % of control | [15] 105 % of control

COc1ccc(C(=Nc2ccc(C)cc2)c2ccccc2)cc1
inactive: [16] 105 % of control | dose: 12.5 mg/kg/injection, schedule: Q01DX009 (ip), vehicle: Klucel (hydroxypropylcellulose) (HPC) 102 % of control | dose: 25.0 mg/kg/injection, schedule: Q01DX009 (ip), vehicle: Klucel (hydroxypropylcellulose) (HPC) 105 % of control | dose: 50.0 mg/kg/injection, schedule: Q01DX009 (ip), vehicle: Klucel (hydroxypropylcellulose) (HPC) 97 % of control and 113 % of control | [10] 122 % of control | [13] 101 % of control | [11] 107 % of control | [14] 98 % of control | [12] 107 % of control | [15] 98 % of control

CCCCCCCCCCN1C(=O)C(Cl)=C(Cl)C1=O
inactive: dose: 25.0 mg/kg/injection, schedule: Q04DX003 (ip), vehicle: saline with Tween-80 103 % of control | dose: 50.0 mg/kg/injection, schedule: Q04DX003 (ip), vehicle: saline with Tween-80 94 % of control

CC(=O)NC1CCC(CCC2CCCCC2)CC1 (configuration not stated)
inactive: [7] 98 % of control | [8] 94 % of control | [9] 98 % of control

O=[N+]([O-])c1ccccc1/C=N/Nc1nnc(N/N=C/c2ccccc2[N+](=O)[O-])c2ccccc12
inactive: [18] 104 % of control | [1] 93 % of control | [2] 98 % of control | dose: 400.0 mg/kg/injection, schedule: Q01DX001 (ip), vehicle: carboxymethylcellulose (CMC) 98 % of control

CN(C)c1c(Cl)cc([N+](=O)[O-])cc1Cl
inactive: dose: 100.0 mg/kg/injection, schedule: Q01DX001 (ip), vehicle: Klucel (hydroxypropylcellulose) (HPC) 97 % of control | dose: 200.0 mg/kg/injection, schedule: Q01DX001 (ip), vehicle: Klucel (hydroxypropylcellulose) (HPC) 95 % of control | dose: 400.0 mg/kg/injection, schedule: Q01DX001 (ip), vehicle: Klucel (hydroxypropylcellulose) (HPC) 94 % of control

O=[N+]([O-])c1ccc(Oc2cc(Cl)c(Cl)cc2Cl)c([N+](=O)[O-])c1
inactive: [17] 90 % of control | dose: 100.0 mg/kg/injection, schedule: Q04DX003 (ip), vehicle: other 98 % of control | dose: 200.0 mg/kg/injection, schedule: Q01DX001 (ip), vehicle: other 92 % of control | dose: 200.0 mg/kg/injection, schedule: Q04DX003 (ip), vehicle: other 95 % of control | dose: 222.0 mg/kg/injection, schedule: Q01DX Z (ip), vehicle: methylcellulose (MC) 100 % of control | dose: 333.0 mg/kg/injection, schedule: Q01DX Z (ip), vehicle: methylcellulose (MC) 91 % of control | dose: 400.0 mg/kg/injection, schedule: Q01DX001 (ip), vehicle: other 89 % of control and 91 % of control | dose: 400.0 mg/kg/injection, schedule: Q04DX003 (ip), vehicle: other 95 % of control | dose: 500.0 mg/kg/injection, schedule: Q01DX Z (ip), vehicle: methylcellulose (MC) 91 % of control

O=c1[nH]cc(C2OC(CO)C(O)C2O)c(=O)[nH]1 (configuration not stated)
inactive: dose: 100.0 mg/kg/injection, schedule: Q01DX005 (ip), vehicle: saline 119 % of control | dose: 200.0 mg/kg/injection, schedule: Q01DX005 (ip), vehicle: saline 97 % of control
